According to PubChem BioAssay (NCI):
Where “and” joins values, the source holds several entries; their conditions need not be identical. Equal entries are not always repeated.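 1) Cells in 96-well plates. 2) Compound, 48 h, 5 concentrations. 3) Linear interpolation between surrounding doses. 4) Unreached endpoint = highest concentration. At the GI50, growth is halved. TGI: total growth inhibition.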

What was measured:
Assay in all cases: NCI-60 cell line screen, 48 h
786-0 renal = tested on: 786-0 renal
A549 NSCLC = tested on: A549 NSCLC
ACHN renal = tested on: ACHN renal
BT-549 breast = tested on: BT-549 breast
CAKI-1 renal = tested on: CAKI-1 renal
CCRF-CEM leukemia = tested on: CCRF-CEM leukemia
COLO 205 colon = tested on: COLO 205 colon
EKVX NSCLC = tested on: EKVX NSCLC
HCC-2998 colon = tested on: HCC-2998 colon
HCT-116 colon = tested on: HCT-116 colon
HOP-92 NSCLC = tested on: HOP-92 NSCLC
HS 578T breast = tested on: HS 578T breast
HT29 colon = tested on: HT29 colon
K-562 leukemia = tested on: K-562 leukemia
KM12 colon = tested on: KM12 colon
LOX IMVI melanoma = tested on: LOX IMVI melanoma
M14 melanoma = tested on: M14 melanoma
MALME-3M melanoma = tested on: MALME-3M melanoma
MCF7 breast = tested on: MCF7 breast
MDA-MB-231 breast = tested on: MDA-MB-231 breast
MDA-MB-435 = tested on: MDA-MB-435
MOLT-4 leukemia = tested on: MOLT-4 leukemia
NCI-H226 lung = tested on: NCI-H226 lung
NCI-H23 lung = tested on: NCI-H23 lung
NCI-H460 lung = tested on: NCI-H460 lung
NCI-H522 lung = tested on: NCI-H522 lung
NCI/ADR-RES ovarian = tested on: NCI/ADR-RES ovarian
OVCAR-5 ovarian = tested on: OVCAR-5 ovarian
OVCAR-8 ovarian = tested on: OVCAR-8 ovarian
PC-3 prostate = tested on: PC-3 prostate
RPMI-8226 leukemia = tested on: RPMI-8226 leukemia
RXF 393 renal = tested on: RXF 393 renal
SF-268 CNS = tested on: SF-268 CNS
SF-295 CNS = tested on: SF-295 CNS
SK-MEL-2 melanoma = tested on: SK-MEL-2 melanoma
SK-MEL-28 melanoma = tested on: SK-MEL-28 melanoma
SK-MEL-5 melanoma = tested on: SK-MEL-5 melanoma
SK-OV-3 ovarian = tested on: SK-OV-3 ovarian
SN12C renal = tested on: SN12C renal
SNB-75 CNS = tested on: SNB-75 CNS
SR leukemia = tested on: SR leukemia
SW-620 colon = tested on: SW-620 colon
T-47D breast = tested on: T-47D breast
TK-10 renal = tested on: TK-10 renal
U251 CNS = tested on: U251 CNS
UACC-257 melanoma = tested on: UACC-257 melanoma
UACC-62 melanoma = tested on: UACC-62 melanoma
UO-31 renal = tested on: UO-31 renal

COc1ccc2c(c1)C(=O)c1c-2n(CCCN=[N+]=[N-])c(=O)c2cc([N+](=O)[O-])ccc12
TGI (786-0 renal): 708 nM
TGI (A549 NSCLC): > 100000 nM
GI50 (ACHN renal): 44.3 nM
TGI (BT-549 breast): 1300 nM
GI50 (CAKI-1 renal): 1.8 nM
TGI (CAKI-1 renal): 5.31 nM
GI50 (CCRF-CEM leukemia): < 1 nM
TGI (CCRF-CEM leukemia): 27.5 nM and 27.2 nM
TGI (COLO 205 colon): > 100000 nM
TGI (EKVX NSCLC): > 100000 nM
GI50 (HCC-2998 colon): 13 nM
TGI (HCT-116 colon): 9110 nM
GI50 (HOP-92 NSCLC): 64.6 nM
GI50 (HS 578T breast): 16200 nM
TGI (HS 578T breast): > 100000 nM
GI50 (HT29 colon): 2820 nM
TGI (HT29 colon): > 100000 nM
GI50 (K-562 leukemia): 78.2 nM and 65.3 nM
TGI (K-562 leukemia): 16300 nM
GI50 (KM12 colon): 558 nM and 3400 nM
TGI (KM12 colon): > 100000 nM
GI50 (LOX IMVI melanoma): 70.7 nM and 177 nM
TGI (LOX IMVI melanoma): 737 nM
TGI (M14 melanoma): 1300 nM
GI50 (MALME-3M melanoma): 422 nM
TGI (MALME-3M melanoma): 9880 nM
GI50 (MCF7 breast): < 1 nM
TGI (MCF7 breast): 4830 nM
GI50 (MDA-MB-231 breast): 33300 nM
TGI (MDA-MB-231 breast): > 100000 nM
GI50 (MDA-MB-435): 252 nM and 491 nM
TGI (MDA-MB-435): > 100000 nM
GI50 (MOLT-4 leukemia): < 1 nM
GI50 (NCI-H226 lung): 268 nM
TGI (NCI-H226 lung): 874 nM
GI50 (NCI-H23 lung): 244 nM
TGI (NCI-H23 lung): 18000 nM
TGI (NCI-H460 lung): 46.9 nM
GI50 (NCI-H522 lung): < 1 nM
TGI (NCI-H522 lung): 657 nM
TGI (NCI/ADR-RES ovarian): > 100000 nM
TGI (OVCAR-5 ovarian): > 100000 nM
TGI (OVCAR-8 ovarian): > 100000 nM
TGI (PC-3 prostate): > 100000 nM
GI50 (RPMI-8226 leukemia): 12.8 nM and 10.1 nM
TGI (RPMI-8226 leukemia): 264 nM and 1350 nM
GI50 (RXF 393 renal): 1.39 nM
GI50 (SF-268 CNS): < 1 nM
GI50 (SF-295 CNS): 33 nM
TGI (SF-295 CNS): 222 nM and 529 nM
GI50 (SK-MEL-2 melanoma): 14500 nM
TGI (SK-MEL-2 melanoma): 39100 nM
GI50 (SK-MEL-28 melanoma): 15100 nM
TGI (SK-MEL-28 melanoma): > 100000 nM
GI50 (SK-MEL-5 melanoma): 10.6 nM
TGI (SK-MEL-5 melanoma): 84.9 nM
GI50 (SK-OV-3 ovarian): 7140 nM
TGI (SK-OV-3 ovarian): 28100 nM
GI50 (SN12C renal): 314 nM
TGI (SN12C renal): 2010 nM
GI50 (SNB-75 CNS): 3470 nM
TGI (SNB-75 CNS): 20500 nM
TGI (SR leukemia): 13400 nM
GI50 (SW-620 colon): < 1 nM
TGI (SW-620 colon): 783 nM
GI50 (T-47D breast): 1570 nM
TGI (T-47D breast): > 100000 nM
GI50 (TK-10 renal): 15200 nM
TGI (TK-10 renal): 37300 nM
GI50 (U251 CNS): 160 nM
TGI (UACC-257 melanoma): > 100000 nM
GI50 (UACC-62 melanoma): 225 nM
TGI (UACC-62 melanoma): 991 nM
GI50 (UO-31 renal): < 1 nM
TGI (UO-31 renal): 2220 nM
